Source: US20080268092A1, “Capsaicin Nutritional Supplement” (priority 2004, published 2008)

What was measured:
[1] = Personal experience of capsaicin use; format: in vivo; conditions: humans
[2] = cited from earlier work
[3] = animal models; cited from earlier work
[4] = cited from earlier work; remark: listed apart in the source

Row | SMILES | effects of use on energy, exercise capacity, endurance, mood, appetite, alertness [1] | solubility in water [2] | endurance capacity [3] | lipolysis [3] | mean half-life in plasma ([4]; healthy individuals) | blood-brain barrier passage ([4]; in vivo)
1 | COc1cc(CNC(=O)CCCC/C=C/C(C)C)ccc1O [Capsaicin] | boosts energy, increases exercise capacity, increases endurance, improves mood, decreases appetite and increases alertness | only slightly soluble in water | increase endurance capacity | promote lipolysis | – | –
2 | Cn1c(=O)c2c(ncn2C)n(C)c1=O [caffeine] | – | – | – | – | about 5 hours | readily crosses the blood-brain barrier
